Among the data in US7105529B2, “Substituted oxindole derivatives as protein tyrosine and as protein serine/threonine kinase inhibitors and compositions and methods of treating chemotherapy and radiation therapy side effects” (SmithKline Beecham Corporation, priority 1997, dated 2006) are IC50 values, retold here.

pIC50: −log10 of the molar value.

The target in one assay is CDK2 (Homo sapiens, UniProt P24941). Description: CDK2 substrate phosphorylation assay. Type of assay: biochemical.
Assay [1] relates to RKO colon adenocarcinoma cells. Put plainly: FACS assay (cell death), RKO. Type of assay: cell-based. Conditions: Homo sapiens; 50% cell death, 72 h. On the procedure:
(§1) These assays allow determination of both cell death and changes in cell cycle profile in cells following treatment of the compound. The assay is performend as follows: • 1. Cells are incubated in DMEM to which 10% FCS has been added in a humidified incubator at 37° C. and 5% by volume of CO2 in air. The cells are innoculated in 6-well plates at a density of 0.5–5×10^5 cells per well. • 2. The test compound is added in serial dilutions 24–36 h after plating in 0.5% DMSO. The plates are then incubated a further 72 h in the presence of the compound. During this time, cells in control cultures undergo at least three cell divisions. • 3. After incubation, the media is collected and cells are harvested by trypsinization. The cells and media are pooled and pelleted by centrifugation. • 4. The cell pellet is fixed in a final volume of 3 mL of 50% ice cold MeOH and incubated for a minimum of 30 min at −20° C. • 5. The cells are pelleted by centrifugation and resuspended in 0.5 mL PBS containing 1%FCS, […] Propidium Iodide (PI) and […] RNase A and incubated 30 min at 37° C. in the dark. • 6. The samples are analysed by flow cytometry using the relative incorporation of PI as a measure of DNA content of each cell. The % Dead cells is recorded as % of events with less than 2N DNA. […] HDF are normal diploid fibroblast cells. […]
(In general: In flow cytometry, cells or beads pass a laser one at a time.)

A further assay concerns the target T1, UL97 (Human cytomegalovirus, UniProt P16788).
T1 construct: GST; made in house; host or cells: sf9 cells (baculovirus vector)
Description: UL97 protein kinase assay (32P transfer to histone H2B). Type of assay: biochemical. On the procedure:
UL97 was produced as a GST fusion protein from a baculovirus vector expressed in sf9 cells as described by He (He, et al., Journal of Virology 1997, 71, 405–11). UL97 was assayed as a protein kinase using ^32P transfer from ATP to histone H2B with detection of radiolabeled histone bound to phosphocellulose. Assay mixes for testing inhibitors of UL97 activity contained 2 mM [γ^32P]-ATP, 15 mM histone H2B, 50 mM sodiumCHES, pH 9.5, 1 M NaCl, 2 mM dithiothreitol and 10 mM MgCl2. Inhibitors were dissolved in diluted DMSO to give a final DMSO concentration in the reaction of 1% DMSO. After incubation at 20° C., the reactions were terminated by addition of 10 volumes of 75 mM phosphoric acid, 30 mM ATP, 1 mM EDTA, then were spotted onto phosphocellulose filters and washed four times with 75 mM phosphoric acid. Radioactivity was determined by liquid scintillation counting.

The subject of a further assay is MES/SA cells. Description: FACS assay (cell death), MES/SA. In kind it is cell-based. As to conditions: Homo sapiens, 50% cell death, 72 h. On the procedure:
as §1

The target in the next assay is Lck (Homo sapiens, UniProt P06239). Put plainly: Lck kinase assay (ELISA or isotope format). In kind it is biochemical.
Sequence of Lck (P06239 whole entry): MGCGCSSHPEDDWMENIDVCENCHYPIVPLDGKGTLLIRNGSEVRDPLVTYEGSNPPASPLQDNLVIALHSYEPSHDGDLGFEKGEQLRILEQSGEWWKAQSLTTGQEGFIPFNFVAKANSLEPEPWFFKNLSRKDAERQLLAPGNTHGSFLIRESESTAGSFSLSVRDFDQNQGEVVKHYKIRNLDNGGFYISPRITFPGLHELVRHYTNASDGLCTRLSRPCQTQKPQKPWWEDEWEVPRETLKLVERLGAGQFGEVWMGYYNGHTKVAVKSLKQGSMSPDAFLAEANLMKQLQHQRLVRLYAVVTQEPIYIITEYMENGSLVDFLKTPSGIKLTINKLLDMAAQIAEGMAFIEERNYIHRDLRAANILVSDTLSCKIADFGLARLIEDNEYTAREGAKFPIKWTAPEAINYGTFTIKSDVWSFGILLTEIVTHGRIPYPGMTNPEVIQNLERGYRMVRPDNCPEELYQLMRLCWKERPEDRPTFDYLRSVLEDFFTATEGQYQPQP
A further assay has as its target cSrc (Homo sapiens, UniProt P12931). Description: Src kinase assay (ELISA or isotope format). In kind it is biochemical. On the procedure: The peptide substrates used in Src and Lck assays were biotin-aminohexyl-EEIYGEF-NH2 (Src) and biotin-aminohexyl-[…]-NH2 (Lck). The src and Ick proteins were purified to homogeneity from a baculovirus expression system and preactivated before adding to assay mixtures. The maximum activation was achieved by incubating concentrated enzyme ([…]) on ice for 40 min in the presence of 1 mM ATP and 10 mM MgCl2 in 100 mM HEPES, pH 7.5. The activated enzyme was diluted to 2 nM into a […] reaction mixture containing 100 mM HEPES, pH 7.5, 5 mM ATP, 10 mM MgCl2, 2 mM peptide, 0.05 mg/mL BSA, and an inhibitor at varying concentrations and with or without 8 mCi/mL [γ-^33P]ATP dependent upon the method of analysis for the extent of reaction. The controls were reactions in the presence (negative controls) or absence (positive controls) of 50 mM EDTA. Reactions were allowed to proceed for 30 min at room temperature and quenched with addition of EDTA to 50 mM in […]. The extent of reactions was analyzed in one of the two ways: an Elisa-based and a radioactive isotope-based. The quenched samples ([…]) were transferred to a neutravidin coated plate (Perice) and incubated at room temperature for 40 min to allow biotinylated peptide to bind to neutravidin. […] The plate was read at A625 in a plate reader. […] The plate was sealed and counted in a micro-b-counter (Wallac). […]
(An ELISA detects its analyte on a solid surface through an enzyme-linked reagent.)

Sequence of cSrc (P12931 whole entry): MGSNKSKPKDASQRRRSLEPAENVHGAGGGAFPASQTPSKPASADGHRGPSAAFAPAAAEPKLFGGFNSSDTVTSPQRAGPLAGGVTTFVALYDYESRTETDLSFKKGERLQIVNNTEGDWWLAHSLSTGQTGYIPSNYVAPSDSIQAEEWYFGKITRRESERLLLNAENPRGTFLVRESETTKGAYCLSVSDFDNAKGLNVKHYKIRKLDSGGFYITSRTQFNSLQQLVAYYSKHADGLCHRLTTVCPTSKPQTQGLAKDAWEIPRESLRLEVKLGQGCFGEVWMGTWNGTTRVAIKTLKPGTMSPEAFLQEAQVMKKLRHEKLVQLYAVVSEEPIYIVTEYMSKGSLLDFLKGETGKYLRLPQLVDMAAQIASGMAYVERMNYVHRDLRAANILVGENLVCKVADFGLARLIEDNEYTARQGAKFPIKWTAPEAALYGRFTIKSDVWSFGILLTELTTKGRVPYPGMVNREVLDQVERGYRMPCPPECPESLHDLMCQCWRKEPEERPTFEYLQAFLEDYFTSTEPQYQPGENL
T1 sequence (P16788 whole entry): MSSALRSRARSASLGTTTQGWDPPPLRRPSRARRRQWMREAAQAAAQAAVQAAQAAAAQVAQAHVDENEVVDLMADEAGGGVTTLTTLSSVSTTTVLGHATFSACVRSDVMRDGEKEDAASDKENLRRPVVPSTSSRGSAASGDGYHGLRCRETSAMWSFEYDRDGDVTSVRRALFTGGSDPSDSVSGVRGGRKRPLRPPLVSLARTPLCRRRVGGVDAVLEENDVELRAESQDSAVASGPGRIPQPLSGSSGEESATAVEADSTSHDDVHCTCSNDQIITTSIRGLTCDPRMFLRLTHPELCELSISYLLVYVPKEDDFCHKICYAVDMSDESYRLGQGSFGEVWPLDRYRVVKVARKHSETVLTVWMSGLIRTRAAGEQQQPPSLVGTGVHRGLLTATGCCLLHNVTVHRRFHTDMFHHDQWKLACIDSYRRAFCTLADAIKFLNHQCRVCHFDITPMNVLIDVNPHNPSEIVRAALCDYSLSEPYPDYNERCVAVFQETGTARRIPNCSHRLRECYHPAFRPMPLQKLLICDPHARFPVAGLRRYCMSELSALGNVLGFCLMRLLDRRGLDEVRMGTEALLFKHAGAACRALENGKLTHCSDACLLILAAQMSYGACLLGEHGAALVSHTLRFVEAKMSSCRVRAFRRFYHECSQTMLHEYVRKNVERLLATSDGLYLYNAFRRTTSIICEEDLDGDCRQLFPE
Description for CDK2: CDK1 and CDK2 were both expressed utilizing a baculovirus expression system and were partially purified to comprise 20–80% of total protein, with no detectable competing reactions present. […] Reactions were terminated with 0.2–2 volumes of either 20% acetic acid or 50–100 mM EDTA buffered to pH 7 (substrate consumption <20%). The buffer employed in enzyme assays was either 30 mM HEPES 7.4 containing 0.15 M NaCl and 5% DMSO, the buffer 50 mM MOPS 7.0 containing 0.15 M NaCl and 5% DMSO, or the buffer 100 mM HEPES pH 7.5 containing 0.1 mg/mL BSA and 5% DMSO. Inhibitors were diluted in 100% DMSO prior to addition into the assay. Detection of peptide phosphorylation was accomplished by scintillation counting following either collection of peptide onto phosphocellulose filters (for reactions stopped with acetic acid), collection of peptide in wells of 96 well plates coated with Streptavidin (Pierce) (reactions were stopped with EDTA), or addition of Avidin coated Scintillant impregnated beads (Scintillation Proximity Assays from Amersham, reactions were stopped with EDTA).
CDK1 and CDK2 were both expressed utilizing a baculovirus expression system and were partially purified to comprise 20–80% of total protein, with no detectable competing reactions present. […]
Description for Lck: The src and Ick proteins were purified to homogeneity from a baculovirus expression system and preactivated before adding to assay mixtures. The maximum activation was achieved by incubating concentrated enzyme (10–30 mM) on ice for 40 min in the presence of 1 mM ATP and 10 mM MgCl2 in 100 mM HEPES, pH 7.5. The activated enzyme was diluted to 2 nM into a 50-mL reaction mixture containing 100 mM HEPES, pH 7.5, 5 mM ATP, 10 mM MgCl2, 2 mM peptide, 0.05 mg/mL BSA, and an inhibitor at varying concentrations and with or without 8 mCi/mL [γ-^33P]ATP dependent upon the method of analysis for the extent of reaction. The controls were reactions in the presence (negative controls) or absence (positive controls) of 50 mM EDTA. Reactions were allowed to proceed for 30 min at room temperature and quenched with addition of EDTA to 50 mM in 220 mL. The extent of reactions was analyzed in one of the two ways: an Elisa-based and a radioactive isotope-based. The quenched samples (200 mL) were transferred to a neutravidin coated plate (Perice) and incubated at room temperature for 40 min to allow biotinylated peptide to bind to neutravidin. The unbound peptide and the rest of the solution was washed away using a plate washer. […] The plate was read at A625 in a plate reader. […] The plate was sealed and counted in a micro-b-counter (Wallac). […]

Consider `COC(=O)c1ccc2c(c1)/C(=C/Nc1ccc(S(N)(=O)=O)cc1)C(=O)N2` [Example 27], for which the pIC50 against CDK2 is 8.00 to 9.00; in assay [1] it was 5.30 to 5.96.

As to `NS(=O)(=O)c1ccc(NN=C2C(=O)Nc3ccc(-c4cnco4)cc32)cc1` [Example 36], the pIC50 is 7.30 to 7.96 at UL97, 6.30 to 7.00 in the assay with MES/SA cells, under 7.00 against Lck and under 7.00 at cSrc.

A word on the pIC50: it is the IC50 on a negative log10 scale, so that one unit is a factor of ten. A lower pIC50 goes with a high IC50.
